Measurements published in patent publication US20180105546A1, “Methods for Chemical Synthesis of Biologically Active Compounds Using Supramolecular Protective Groups and Novel Compounds Obtainable Thereby” (Rijksuniversiteit Groningen, priority 2011, published 2018).
“Also recorded” adds a separate entry of the source.

Assays:
E. coli ATCC 25922 [1] = experiment: Minimum Inhibitory Concentration (MIC) test; type: cell-based; conditions: for MIC: E. coli ATCC 25922, Mueller-Hinton broth, overnight 37° C., HFBA salts except 1* (sulphate); for antimicrobial activity against E. coli ATCC 25922 (in words): Kirby-Bauer Disk Test and MIC, summary statement
Procedure: All test solutions contained 40 nmol of antibiotic. After drying, the samples were resuspended in 100 μL of Mueller-Hinton broth. Each solution of antibiotic in broth media was pipetted in the first lane of a 96 well plate (volume of well 500 μL). The remaining lanes were filled with 50 μL of E. coli ATCC 25922 culture with an OD600 of 0.264. Series of 2-fold dilution were made removing from the first lane 50 μL of the antibiotic solution and resuspending it with the culture contained in the next well. At the end, all wells were filled with 100 μL of E. coli ATCC 25922 culture in Mueller-Hinton with an OD600 of 0.132 (0.5 McFarland) and the appropriate amount of antibiotic. The 96-well plates were incubated overnight at 37° C. and 350 RPM shaking.

E. coli ATCC 25922 [2] = experiment: Kirby-Bauer disk test (zone of inhibition); type: cell-based; conditions: amount 17.5 nmol per disk, HFBA salts except 1* (sulphate)
Procedure: Antibiotic disks preparation. Paper disks (6 mm diameter, BBL Microbiology Systems) were wetted through with 20, 25, 30 and 35 μL of a solution containing the antibiotic sample at a concentration of 0.5 nmol/μL. The wet disks were dried in a desiccator overnight, and used the next day.
Culture preparation. A colony picked from a freshly made plate of the bacteria strain E. coli ATCC 25922 was used to inoculate 20 mL of Mueller-Hinton broth and the obtained culture was grown overnight at 37° C. and 250 RPM shaking.
Kirby-Bauer test procedure. A new culture was made adding 1 mL of overnight culture in 99 mL of fresh Mueller-Hinton broth. The culture was grown at 37° C. and 250 RPM shaking until it reached an OD600 of 0.132 (0.5 McFarland) and a series of Mueller-Ilinton-Agar plates preheated at 37° C. were inoculated spreading 200 μL of that culture with sterile cotton. The plates were then dried for 30 minutes. Then on each plate 3 or 4 antibiotic paper disks were placed. The plates were incubated overnight at 37° C. and subsequently the diameter of the inhibition growth zone was measured.

Compound	MIC (E. coli ATCC 25922 [1]; Escherichia coli, ATCC25922) [µM]	Diameter (zones of inhibition as determined by Kirby-Bauer disk method) (E. coli ATCC 25922 [2]) [mm]	MIC (E. coli ATCC 25922 [1]) [µM]	antimicrobial activity against E. coli ATCC 25922 (in words) (E. coli ATCC 25922 [1])
NC[C@@H]1O[C@H](O[C@H]2[C@@H](O)[C@H](O[C@@H]3[C@@H](O)[C@H](N)C[C@H](N)[C@H]3O[C@H]3O[C@H](CO)[C@@H](O)[C@H](O)[C@H]3N)O[C@@H]2CO)[C@H](N)[C@@H](O)[C@@H]1O [2^, paromomycin, reference compound]	12.5	13.2	–	–
NCC1OC(OC2C(CO)OC(OC3C(O)C(N)CC(N)C3OC3OC(CN)C(O)C(O)C3N)C2O)C(N)C(O)C1O.O=C(O)C(F)(F)C(F)(F)C(F)(F)F.O=C(O)C(F)(F)C(F)(F)C(F)(F)F.O=C(O)C(F)(F)C(F)(F)C(F)(F)F.O=C(O)C(F)(F)C(F)(F)C(F)(F)F.O=C(O)C(F)(F)C(F)(F)C(F)(F)F.O=C(O)C(F)(F)C(F)(F)C(F)(F)F (centres unmarked) [1^, neomycin B×6 HFBA, reference compound]	–	16.1	3.1	–
CC(C)C(=O)NCC1O[C@H](OC2C(O)[C@H](OC3C(O)[C@H](N)CC(N)[C@H]3O[C@H]3OC(CN)[C@@H](O)C(O)C3N)O[C@@H]2CO)C(N)C(O)[C@@H]1O (some centres unmarked) [compound 6]	12.5	11.5	–	still highly active; also recorded: same biological activity as paromomycin 2
neomycin B [compound 1, reference compound]	–	–	3.1	–
CC(=O)NCC1O[C@H](OC2C(O)[C@H](OC3C(O)[C@H](N)CC(N)[C@H]3O[C@H]3OC(CN)[C@@H](O)C(O)C3N)O[C@@H]2CO)C(N)C(O)[C@@H]1O (some centres unmarked) [5a, N^6(VI)-acetyl neomycin B]	6.3	13.9	–	still highly active
